One may read the EC50 as the concentration at which the effect is half-maximal.

Where two headings read alike, the source gives them in different places.

For data set [1] the following is noted: rcm bond, DCE.
The test system of data set [2] is NL-RLuc virus. Nature of the data set: Inhibition of HIV replication (NL-RLuc luciferase reporter virus in MT-2 cells). Conditions: recombinant NL-Rluc virus infecting MT-2 cells, 5 days of incubation, luciferase readout; at least 2 experiments; serum condition not given (10% FBS, 15 mg/ml human serum albumin/10% FBS or 40% human serum/5% FBS). In kind it is cell-based, human immunodeficiency virus (HIV).

The molecule `CCOC(=O)[C@@H](OC(C)(C)C)c1c(C)nc2cc3nn2c1N1CCC(C)(CC1)OCCCCOc1ccccc1CC(=O)CNC3=O` gave a ring closure, yield of all isomers in data set [1] (from C=CCOc1ccccc1CC(O)CNC(=O)c1cc2nc(C)c([C@H](OC(C)(C)C)C(=O)OCC)c(N3CCC(C)(OCC=C)CC3)n2n1, Hoveyda-Grubbs 2nd generation, 7.4 mM, 70.0 °C, 2.0 h, 3 steps) of 43.1%.

Turning to `Cc1nc2cc3nn2c(c1[C@H](OC(C)(C)C)C(=O)O)-c1ccc2c(c1Cl)N(CC=CCCc1ccccc1CNC3=O)CCO2`, in data set [1] (from C=CCCc1ccccc1CNC(=O)c1cc2nc(C)c([C@H](OC(C)(C)C)C(=O)OCC)c(-c3ccc4c(c3Cl)N(CC=C)CCO4)n2n1, Hoveyda-Grubbs II, 32.0 mM, 83.0 °C, 3.0 h, 2 steps), the ring closure, yield of all isomers is 14.8%.

On to `Cc1nc2cc3nn2c(c1[C@H](OC(C)(C)C)C(=O)O)-c1ccc2c(c1Cl)N(CC=CCOc1cc(F)ccc1CNC3=O)CCO2`, for which the ring closure, yield of all isomers in data set [1] (from C=CCOc1cc(F)ccc1CNC(=O)c1cc2nc(C)c([C@H](OC(C)(C)C)C(=O)OCC)c(-c3ccc4c(c3Cl)N(CC=C)CCO4)n2n1, Hoveyda-Grubbs II, 57.0 mM, 83.0 °C, 3.0 h, 2 steps) stood at 30.5%.

As for `Cc1nc2cc3nn2c(c1[C@H](OC(C)(C)C)C(=O)O)-c1ccccc1C=CCOc1cc(F)ccc1CNC3=O`, in data set [1] (from C=CCOc1cc(F)ccc1CNC(=O)c1cc2nc(C)c([C@H](OC(C)(C)C)C(=O)OCC)c(-c3ccccc3C=C)n2n1, Hoveyda-Grubbs II, 37.0 mM, 83.0 °C, 16.0 h, 2 steps), the ring closure, yield of all isomers was found to be 5%.

Turning to `Cc1nc2cc3nn2c(c1[C@H](OC(C)(C)C)C(=O)O)N1CCC(C)(CC1)OCCCCOc1ccccc1CC(O)CNC3=O` (some centres unmarked), in data set [1] (from C=CCOc1ccccc1CC(O)CNC(=O)c1cc2nc(C)c([C@H](OC(C)(C)C)C(=O)OCC)c(N3CCC(C)(OCC=C)CC3)n2n1, Hoveyda-Grubbs 2nd generation, 6.0 mM, 70.0 °C, 2.0 h, 3 steps), the ring closure, yield of all isomers turned out to be 51.1%.

As to `Cc1nc2cc3nn2c(c1[C@H](OC(C)(C)C)C(=O)O)-c1ccc2c(c1Cl)N(C/C=C/COc1cc(F)ccc1CNC3=O)CCO2` (single isomer, unassigned) [Example 2], the EC50 in data set [2] was determined as 31 nM.

Consider `Cc1nc2cc3nn2c(c1[C@H](OC(C)(C)C)C(=O)O)-c1ccc2c(c1Cl)N(CC/C=C\Oc1cc(F)ccc1CNC3=O)CCO2` (single isomer, unassigned) [Example 3], for which the EC50 in data set [2] stood at 42 nM.

With `Cc1nc2cc3nn2c(c1[C@H](OC(C)(C)C)C(=O)O)-c1ccc2c(c1Cl)N(C/C=C/COc1cc(F)ccc1CNC3=O)CCO2` (single isomer, unassigned) [Example 4], in data set [2], the EC50 was found to be 1460 nM.

On to `Cc1nc2cc3nn2c(c1[C@H](OC(C)(C)C)C(=O)O)-c1ccc2c(c1Cl)N(CC/C=C\Oc1cc(F)ccc1CNC3=O)CCO2` (single isomer, unassigned) [Example 5], for which the EC50 in data set [2] was 12100 nM.

In the case of `Cc1nc2cc3nn2c(c1[C@H](OC(C)(C)C)C(=O)O)N1CCC(C)(CC1)OCCCCOc1ccccc1CC(O)CNC3=O` (single isomer, unassigned) [Example 21], in data set [2], the EC50 was 136 nM.

In the case of `Cc1nc2cc3nn2c(c1[C@H](OC(C)(C)C)C(=O)O)N1CCC(C)(CC1)OCCCCOc1ccccc1CC(O)CNC3=O` (single isomer, unassigned) [Example 22], the EC50 in data set [2] worked out at 57 nM.

These data come from patent publication US9540393B2, “Inhibitors of human immunodeficiency virus replication” (priority 2013, dated 2017).
